Consider nine molecules from ChEMBL document CHEMBL1156116, “Histone deacetylase and microtubules as targets for the synthesis of releasable conjugate compounds” (Bioorg Med Chem Lett, 2009).

Calls of active or inactive are those of the source. No cut-off for these calls is given here.

Experiment [1] deals with T1, Protein deacetylase HDAC6 (Homo sapiens) (UniProt Q9UBN7).
T1 sequence (whole entry): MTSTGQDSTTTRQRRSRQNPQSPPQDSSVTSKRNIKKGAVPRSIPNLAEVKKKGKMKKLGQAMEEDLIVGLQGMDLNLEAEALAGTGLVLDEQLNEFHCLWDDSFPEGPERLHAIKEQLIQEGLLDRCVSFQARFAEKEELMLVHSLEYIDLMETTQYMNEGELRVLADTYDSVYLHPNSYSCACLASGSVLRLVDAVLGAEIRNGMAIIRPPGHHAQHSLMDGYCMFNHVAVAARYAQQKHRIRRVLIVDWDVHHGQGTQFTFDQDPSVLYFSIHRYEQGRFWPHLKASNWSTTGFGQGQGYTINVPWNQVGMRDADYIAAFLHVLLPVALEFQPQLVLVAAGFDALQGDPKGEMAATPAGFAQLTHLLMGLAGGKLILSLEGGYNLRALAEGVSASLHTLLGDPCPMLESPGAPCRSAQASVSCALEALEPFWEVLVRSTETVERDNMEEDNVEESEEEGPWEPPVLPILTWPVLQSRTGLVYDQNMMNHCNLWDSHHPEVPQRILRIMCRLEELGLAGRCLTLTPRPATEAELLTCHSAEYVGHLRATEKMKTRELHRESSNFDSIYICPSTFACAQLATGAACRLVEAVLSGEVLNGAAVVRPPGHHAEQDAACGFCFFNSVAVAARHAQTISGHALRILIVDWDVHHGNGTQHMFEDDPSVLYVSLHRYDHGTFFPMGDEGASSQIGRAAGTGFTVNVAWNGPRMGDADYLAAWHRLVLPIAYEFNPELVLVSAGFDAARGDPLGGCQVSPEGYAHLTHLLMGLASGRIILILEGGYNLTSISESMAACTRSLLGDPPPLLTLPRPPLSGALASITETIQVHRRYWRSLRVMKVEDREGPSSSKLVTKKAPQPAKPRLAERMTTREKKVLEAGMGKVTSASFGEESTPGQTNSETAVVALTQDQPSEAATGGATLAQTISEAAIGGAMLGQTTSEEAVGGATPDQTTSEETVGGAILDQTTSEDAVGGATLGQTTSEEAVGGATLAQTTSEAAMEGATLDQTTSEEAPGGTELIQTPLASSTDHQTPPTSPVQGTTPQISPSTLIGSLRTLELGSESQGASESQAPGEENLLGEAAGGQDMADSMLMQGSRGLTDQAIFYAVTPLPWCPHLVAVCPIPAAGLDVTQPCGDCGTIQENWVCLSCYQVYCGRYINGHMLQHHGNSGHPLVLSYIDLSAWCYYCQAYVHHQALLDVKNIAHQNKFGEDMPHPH
Nature of the experiment: Inhibition of human HDAC6 in human IGROV1 cells assessed as alpha-tubulin acetylation after 4 hrs by Western blot analysis. It is filed as cell-based. The conditions noted are these: IGROV-1.

The test system of experiment [2] is IGROV-1. The experiment can be described thus: Antiproliferative activity against human IGROV1 cells assessed as growth inhibition after 72 hrs by Coulter counting analysis. Type of experiment: functional, cell-based. The conditions noted are these: IGROV-1, 72 h.
The target in experiment [3] is Histone deacetylase 1 (Homo sapiens) (UniProt Q13547). Nature of the experiment: Inhibition of human HDAC1 in human IGROV1 cells assessed as histone H4 acetylation after 4 hrs by Western blot analysis. Type of experiment: cell-based. To be noted: IGROV-1.
Histone deacetylase 1 (Homo sapiens), sequence (Q13547 whole entry): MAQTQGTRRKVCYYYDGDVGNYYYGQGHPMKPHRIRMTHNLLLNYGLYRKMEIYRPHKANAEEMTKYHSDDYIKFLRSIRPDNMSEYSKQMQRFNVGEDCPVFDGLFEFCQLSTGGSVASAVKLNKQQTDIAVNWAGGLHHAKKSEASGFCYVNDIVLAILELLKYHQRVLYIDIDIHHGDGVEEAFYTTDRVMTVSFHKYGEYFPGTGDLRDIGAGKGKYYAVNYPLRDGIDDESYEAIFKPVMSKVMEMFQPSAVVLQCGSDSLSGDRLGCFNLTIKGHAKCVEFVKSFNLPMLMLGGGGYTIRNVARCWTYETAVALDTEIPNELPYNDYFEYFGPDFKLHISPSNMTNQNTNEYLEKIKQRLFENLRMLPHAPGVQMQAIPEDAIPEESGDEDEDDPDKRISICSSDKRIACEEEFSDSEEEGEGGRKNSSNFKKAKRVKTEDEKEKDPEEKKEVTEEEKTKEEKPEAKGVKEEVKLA
Experiment [4] has as its target T1, Protein deacetylase HDAC6 (Homo sapiens). Nature of the experiment: Inhibition of human HDAC6 in human IGROV1 cells assessed as alpha-tubulin acetylation at 0.33 to 0.1 uM after 48 hrs by Western blot analysis. Type of experiment: cell-based. The conditions noted are these: IGROV-1. (Immunoblotting shows a protein as a band on a membrane.)
Experiment [5] deals with IGROV-1. Nature of the experiment: Induction of apoptosis in human IGROV1 cells at IC80 concentration by TUNEL assay. It is filed as functional.
Experiment [6] has as its target Histone deacetylase 1 (Homo sapiens) (UniProt Q13547). Nature of the experiment: Inhibition of human HDAC1 in human IGROV1 cells assessed as histone H4 acetylation at 0.1 uM after 4 hrs by Western blot analysis. Type of experiment: cell-based. The conditions noted are these: IGROV-1.
The target of experiment [7] is T1, Protein deacetylase HDAC6 (Homo sapiens). The experiment can be described thus: Inhibition of human HDAC6 in human IGROV1 cells assessed as alpha-tubulin acetylation at 0.1 uM after 48 hrs by Western blot analysis. To be noted: IGROV-1. It is filed as cell-based.

On to `O=C(/C=C/c1ccc(CN(CCO)Cc2ccccc2)cc1)NO`, for which the inhibition result in experiment [1] and in experiment [3] was “Dose-dependent effect” each time. For the same molecule, the IC50 (usually the concentration that gives 50% inhibition) in experiment [2] is 18 nM.

Regarding `CC(=O)O[C@H]1C(=O)[C@@]2(C)[C@H]([C@H](OC(=O)c3ccccc3)[C@]3(O)C[C@H](OC(=O)[C@H](O)[C@@H](NC(=O)c4ccccc4)c4ccccc4)C(C)=C1C3(C)C)[C@]1(OC(C)=O)CO[C@@H]1C[C@@H]2O` [PACLITAXEL], the IC50 in experiment [2] was found to be 60 nM.

In the case of `O=C(/C=C/c1ccc(CNCc2ccccc2)cc1)NO`, the inhibition result in experiment [1] and in experiment [3] was “Dose-dependent effect” in each case. The IC50 in experiment [2] was determined as 480 nM.

Regarding `CC(C)(C)OC(=O)N(Cc1ccccc1)Cc1ccc(/C=C/C(=O)NOC2CCCCO2)cc1` (configuration not stated), in experiment [2], the IC50 amounted to 41000 nM.

As to `C/C=C(\C)C(=O)N[C@@H](c1ccccc1)[C@@H](O)C(=O)O[C@H]1C[C@@]2(O)[C@@H](OC(=O)c3ccccc3)[C@@H]3[C@]4(OC(C)=O)CO[C@@H]4C[C@H](O)[C@@]3(C)C(=O)[C@H](OC(C)=O)C(=C1C)C2(C)C` [CEPHALOMANNINE], in experiment [2], the IC50 worked out at 300 nM.

As to `COc1cc2c(c(OC)c1OC)-c1ccc(SC)c(=O)cc1[C@@H](NC(=O)CCCSSCCCC(=O)O)CC2`, the IC50 in experiment [2] turned out to be 19 nM.

`COc1cc2c(c(OC)c1OC)-c1ccc(SC)c(=O)cc1[C@@H](NC(=O)CCCSSCCCC(=O)OCCN(Cc1ccccc1)Cc1ccc(/C=C/C(=O)NO)cc1)CC2`: in experiment [4], the inhibition entry was “Active”. The IC50 in experiment [2] came out at 78 nM. Moreover, in experiment [5], the Activity stood at 45%.

For `CC(C)(C)OC(=O)N(Cc1ccccc1)Cc1ccc(/C=C/C(=O)NO)cc1`, the IC50 in experiment [2] came out at 19100 nM.

For the molecule `COc1cc2c(c(OC)c1OC)-c1ccc(SC)c(=O)cc1[C@@H](NC(=O)CCCSSCCCC(=O)N[C@H]1CCc3cc(OC)c(OC)c(OC)c3-c3ccc(SC)c(=O)cc31)CC2`, the inhibition entry in experiment [6] and in experiment [7] was “Active” in each case. In experiment [2], the IC50 turned out to be 50 nM.
